Results as given in patent US20240190916A1, “NOVEL PEPTIDE” (HYSENSBIO, priority 2022, published 2024).

Each sequence was assayed on DMP1 gene (assay: DMP1 mRNA level by real-time PCR in human-derived mesenchymal stem cells). Conditions: compared to untreated control.
Type: cell-based
Protocol: (§1) It was cultured at 37° C. in humid air containing 5% CO2 and used for the experiment. Human mesenchymal stem cells (hBMSCs) were purchased from Lonza (LONZA, Switzerland) and used. hBMSCs were cultured in a-MEM (Invitrogen) medium supplemented with 10% heat-inactivated bovine serum.
(§2) Total RNA of human dental pulp cells and mesenchymal stem cells was isolated using a TRIzol reagent. cDNA was synthesized using 2 μg of total RNA, 1 μl of reverse transcriptase, and 0.5 μg of oligo (dT). The synthesized cDNA was used for real-time polymerase chain reaction. The real-time polymerase chain reaction was performed in ABI PRISM 7500 sequence detection system (Applied Biosystems) using SYBR GREEN PCR Master Mix (Takara, Japan). The real-time polymerase chain reaction was performed at 94° C., 1 min; 95° C., 15 sec-60° C., 34 sec was performed under the condition of repeating 40 cycles. An analysis of the results was evaluated using a comparative cycle threshold (CT) method, and primer base sequences are listed in Table 9.
(§3) BSP and DMP1 genes are used as markers for differentiation of osteoblasts and cementoblasts, and are known as important genes for calcification of a bone and cementum. The effects of each group of peptides on BSP and DMP1 mRNA expression were confirmed by a real-time PCR (Tables 11 and 12).

Row | Sequence | mRNA level of DMP1 gene, DMP1 gene expression, Average [fold]
1 | KYAKKKKNYK [SEQ ID NO: 33] | 7.709
2 | KYAKKKKSYK [SEQ ID NO: 41] | 7.727
3 | KYAKKKRNYK [SEQ ID NO: 34] | 7.031
4 | KYAKKKRSYK [SEQ ID NO: 42] | 7.367
5 | KYAKKRKNYK [SEQ ID NO: 35] | 7.527
6 | KYAKKRKSYK [SEQ ID NO: 43] | 6.791
7 | KYAKKRRNYK [SEQ ID NO: 37] | 7.032
8 | KYAKKRRSYK [SEQ ID NO: 45] | 7.309
9 | KYAKRKKNYK [SEQ ID NO: 36] | 6.999
10 | KYAKRKKSYK [SEQ ID NO: 44] | 7.663
11 | KYAKRKRNYK [SEQ ID NO: 40] | 7.635
12 | KYAKRKRSYK [SEQ ID NO: 48] | 6.757
13 | KYAKRRKNYK [SEQ ID NO: 38] | 7.777
14 | KYAKRRKSYK [SEQ ID NO: 46] | 7.294
15 | KYAKRRRNYK [SEQ ID NO: 39] | 6.989
16 | KYAKRRRSYK [SEQ ID NO: 47] | 7.107
17 | KYARKKKNYK [SEQ ID NO: 49] | 6.789
18 | KYARKKKSYK [SEQ ID NO: 57] | 6.059
19 | KYARKKRNYK [SEQ ID NO: 50] | 6.109
20 | KYARKKRSYK [SEQ ID NO: 58] | 5.999
21 | KYARKRKNYK [SEQ ID NO: 51] | 5.272
22 | KYARKRKSYK [SEQ ID NO: 59] | 5.510
23 | KYARKRRNYK [SEQ ID NO: 53] | 6.483

Row | Sequence | mRNA level of DMP1 gene, DMP1 gene expression, Average [fold]
24 | KYARKRRSYK [SEQ ID NO: 61] | 5.787
25 | KYARRKKNYK [SEQ ID NO: 52] | 5.991
26 | KYARRKKSYK [SEQ ID NO: 60] | 5.078
27 | KYARRKRNYK [SEQ ID NO: 56] | 5.798
28 | KYARRKRSYK [SEQ ID NO: 64] | 6.123
29 | KYARRRKNYK [SEQ ID NO: 54] | 6.531
30 | KYARRRKSYK [SEQ ID NO: 62] | 5.333
31 | KYARRRRNYK [SEQ ID NO: 55] | 6.111
32 | KYARRRRSYK [SEQ ID NO: 63] | 5.727
33 | KYKAKKKSYK [SEQ ID NO: 9] | 9.869
34 | KYKAKKRNYK [SEQ ID NO: 2] | 10.361
35 | KYKAKKRSYK [SEQ ID NO: 10] | 9.998
36 | KYKAKRKNYK [SEQ ID NO: 3] | 11.271
37 | KYKAKRKSYK [SEQ ID NO: 11] | 8.795
38 | KYKAKRRNYK [SEQ ID NO: 5] | 11.001
39 | KYKAKRRSYK [SEQ ID NO: 13] | 9.237
40 | KYKARKKNYK [SEQ ID NO: 4] | 9.720
41 | KYKARKKSYK [SEQ ID NO: 12] | 7.997
42 | KYKARKRNYK [SEQ ID NO: 8] | 11.120
43 | KYKARKRSYK [SEQ ID NO: 16] | 10.014
44 | KYKARRKNYK [SEQ ID NO: 6] | 9.897
45 | KYKARRKSYK [SEQ ID NO: 14] | 9.407
46 | KYKARRRNYK [SEQ ID NO: 7] | 10.236

Each sequence was assayed on DSPP gene (assay: DSPP mRNA level by real-time PCR in human dental pulp cells). Conditions: peptide 10 ug/ml, compared to untreated control.
Type: cell-based
Protocol: Human pulp tissue cells were isolated from wisdom teeth of 10 adults (18-22 years old) at Seoul National University Dental Hospital. Specifically, all experiments were performed with the patient's consent after approval from the hospital's Institutional Review Board, and wisdom teeth are cut according to a method of Jung H S et al (J Mol Histol. (2011)), exposing the pulp and isolating the pulp with forceps. The isolated pulp was minced on both sides, placed in a 60 mm dish, covered with a cover slip, and then cultured in Dulbecco's Modified Eagle medium. It is known that human dental pulp cells can differentiate into odontoblasts, osteoblasts, cementoblasts and periodontal ligament cells under various conditions (Tissue Eng Part A. 2014 April; 20(7-8): 1342-51).
as §2
The effect of each group of peptides on DSPP mRNA expression was confirmed by real-time PCR (Table 10).

Row | Sequence | mRNA level of DSPP gene, Average [fold]
47 | KYAKKKKNYK [SEQ ID NO: 33] | 1.813
48 | KYAKKKKSYK [SEQ ID NO: 41] | 1.897
49 | KYAKKKRNYK [SEQ ID NO: 34] | 2.361
50 | KYAKKKRSYK [SEQ ID NO: 42] | 1.811
51 | KYAKKRKNYK [SEQ ID NO: 35] | 1.572
52 | KYAKKRKSYK [SEQ ID NO: 43] | 1.620
53 | KYAKKRRNYK [SEQ ID NO: 37] | 1.67
54 | KYAKKRRSYK [SEQ ID NO: 45] | 2.125
55 | KYAKRKKNYK [SEQ ID NO: 36] | 1.702
56 | KYAKRKKSYK [SEQ ID NO: 44] | 2.121
57 | KYAKRKRNYK [SEQ ID NO: 40] | 2.121
58 | KYAKRKRSYK [SEQ ID NO: 48] | 2.516
59 | KYAKRRKNYK [SEQ ID NO: 38] | 1.705
60 | KYAKRRKSYK [SEQ ID NO: 46] | 1.836
61 | KYAKRRRNYK [SEQ ID NO: 39] | 2.015
62 | KYAKRRRSYK [SEQ ID NO: 47] | 1.620
63 | KYARKKKNYK [SEQ ID NO: 49] | 1.798
64 | KYARKKKSYK [SEQ ID NO: 57] | 1.886
65 | KYARKKRNYK [SEQ ID NO: 50] | 1.661
66 | KYARKKRSYK [SEQ ID NO: 58] | 1.811
67 | KYARKRKNYK [SEQ ID NO: 51] | 2.572
68 | KYARKRKSYK [SEQ ID NO: 59] | 2.120
69 | KYARKRRNYK [SEQ ID NO: 53] | 2.037

Row | Sequence | mRNA level of DSPP gene, Average [fold]
70 | KYARKRRSYK [SEQ ID NO: 61] | 1.525
71 | KYARRKKNYK [SEQ ID NO: 52] | 2.102
72 | KYARRKKSYK [SEQ ID NO: 60] | 2.195
73 | KYARRKRNYK [SEQ ID NO: 56] | 2.021
74 | KYARRKRSYK [SEQ ID NO: 64] | 1.606
75 | KYARRRKNYK [SEQ ID NO: 54] | 2.005
76 | KYARRRKSYK [SEQ ID NO: 62] | 1.836
77 | KYARRRRNYK [SEQ ID NO: 55] | 1.921
78 | KYARRRRSYK [SEQ ID NO: 63] | 2.120
79 | KYKAKKKSYK [SEQ ID NO: 9] | 3.057
80 | KYKAKKRNYK [SEQ ID NO: 2] | 7.361
81 | KYKAKKRSYK [SEQ ID NO: 10] | 3.811
82 | KYKAKRKNYK [SEQ ID NO: 3] | 8.572
83 | KYKAKRKSYK [SEQ ID NO: 11] | 3.362
84 | KYKAKRRNYK [SEQ ID NO: 5] | 6.67
85 | KYKAKRRSYK [SEQ ID NO: 13] | 2.535
86 | KYKARKKNYK [SEQ ID NO: 4] | 9.702
87 | KYKARKKSYK [SEQ ID NO: 12] | 2.911
88 | KYKARKRNYK [SEQ ID NO: 8] | 7.021
89 | KYKARKRSYK [SEQ ID NO: 16] | 2.906
90 | KYKARRKNYK [SEQ ID NO: 6] | 7.705
91 | KYKARRKSYK [SEQ ID NO: 14] | 2.136
92 | KYKARRRNYK [SEQ ID NO: 7] | 8.215

Each sequence was assayed on BSP gene (assay: BSP mRNA level by real-time PCR in human-derived mesenchymal stem cells). Conditions: compared to untreated control.
Type: cell-based
Protocol: as §1, §2, §3

Row | Sequence | mRNA level of BSP gene, BSP gene expression, Average [fold]
93 | KYAKKKKNYK [SEQ ID NO: 33] | 2.092
94 | KYAKKKKSYK [SEQ ID NO: 41] | 1.762
95 | KYAKKKRNYK [SEQ ID NO: 34] | 2.136
96 | KYAKKKRSYK [SEQ ID NO: 42] | 1.882
97 | KYAKKRKNYK [SEQ ID NO: 35] | 2.372
98 | KYAKKRKSYK [SEQ ID NO: 43] | 2.011
99 | KYAKKRRNYK [SEQ ID NO: 37] | 1.999
100 | KYAKKRRSYK [SEQ ID NO: 45] | 1.878
101 | KYAKRKKNYK [SEQ ID NO: 36] | 2.207
102 | KYAKRKKSYK [SEQ ID NO: 44] | 1.699
103 | KYAKRKRNYK [SEQ ID NO: 40] | 2.102
104 | KYAKRKRSYK [SEQ ID NO: 48] | 1.773
105 | KYAKRRKNYK [SEQ ID NO: 38] | 2.507
106 | KYAKRRKSYK [SEQ ID NO: 46] | 1.863
107 | KYAKRRRNYK [SEQ ID NO: 39] | 2.293
108 | KYAKRRRSYK [SEQ ID NO: 47] | 2.063
109 | KYARKKKNYK [SEQ ID NO: 49] | 1.971
110 | KYARKKKSYK [SEQ ID NO: 57] | 1.679
111 | KYARKKRNYK [SEQ ID NO: 50] | 1.901
112 | KYARKKRSYK [SEQ ID NO: 58] | 1.811
113 | KYARKRKNYK [SEQ ID NO: 51] | 1.899
114 | KYARKRKSYK [SEQ ID NO: 59] | 1.629
115 | KYARKRRNYK [SEQ ID NO: 53] | 2.036

Row | Sequence | mRNA level of BSP gene, BSP gene expression, Average [fold]
116 | KYARKRRSYK [SEQ ID NO: 61] | 1.832
117 | KYARRKKNYK [SEQ ID NO: 52] | 1.999
118 | KYARRKKSYK [SEQ ID NO: 60] | 1.991
119 | KYARRKRNYK [SEQ ID NO: 56] | 2.016
120 | KYARRKRSYK [SEQ ID NO: 64] | 2.021
121 | KYARRRKNYK [SEQ ID NO: 54] | 2.1
122 | KYARRRKSYK [SEQ ID NO: 62] | 1.769
123 | KYARRRRNYK [SEQ ID NO: 55] | 1.773
124 | KYARRRRSYK [SEQ ID NO: 63] | 2.237
125 | KYKAKKKSYK [SEQ ID NO: 9] | 2.084
126 | KYKAKKRNYK [SEQ ID NO: 2] | 2.713
127 | KYKAKKRSYK [SEQ ID NO: 10] | 1.998
128 | KYKAKRKNYK [SEQ ID NO: 3] | 2.715
129 | KYKAKRKSYK [SEQ ID NO: 11] | 2.226
130 | KYKAKRRNYK [SEQ ID NO: 5] | 2.77
131 | KYKAKRRSYK [SEQ ID NO: 13] | 2.637
132 | KYKARKKNYK [SEQ ID NO: 4] | 2.307
133 | KYKARKKSYK [SEQ ID NO: 12] | 1.918
134 | KYKARKRNYK [SEQ ID NO: 8] | 2.617
135 | KYKARKRSYK [SEQ ID NO: 16] | 2.307
136 | KYKARRKNYK [SEQ ID NO: 6] | 2.935
137 | KYKARRKSYK [SEQ ID NO: 14] | 1.729
138 | KYKARRRNYK [SEQ ID NO: 7] | 2.548
